From PubChem BioAssay (NCI)
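A five-concentration, 48-hour dose response in 96-well plates underlies each endpoint, interpolated linearly between surrounding concentrations. At the GI50, growth is halved. Definition used: TGI = concentration required for complete inhibition of growth.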

test system: CAKI-1 renal; experiment: NCI-60 cell line screen, 48 h

| Structure (SMILES) | GI50 | TGI |
| --- | --- | --- |
| CC(=O)OCC1OC([S-])C(OC(C)=O)C(OC(C)=O)C1OC(C)=O.CC[PH+](CC)CC.CC[PH+](CC)CC.[Au].[Au] (stereo not given) | 0.292 µM | 0.987 µM |
| O=C(C[n+]1ccccc1)NNC(=O)/C(=C/c1ccc2c(c1)OCO2)NC(=O)c1ccccc1 |  | > 100 µM |
| Cc1cccc(NC(=O)/C=C/c2ccc(N(CCC#N)CCC#N)cc2C)c1 |  | > 100 µM |
| Clc1ccc(-c2c(C3=NCCN3)nnn2-c2ccc(Cl)cc2)cc1 |  | > 100 µM |
| Nc1ccc(C(=O)NN2C(=O)C(Cl)C2c2ccccc2Cl)cc1 (stereo not given) |  | 26.9 µM |
| O=C(CCC(=O)Nc1cccc(Cl)c1)CC(=O)c1ccc(Cl)cc1 |  | > 100 µM |

test system: K-562 leukemia; experiment: NCI-60 cell line screen, 48 h

| Structure (SMILES) | GI50 | TGI |
| --- | --- | --- |
| CC(=O)OCC1OC([S-])C(OC(C)=O)C(OC(C)=O)C1OC(C)=O.CC[PH+](CC)CC.CC[PH+](CC)CC.[Au].[Au] (stereo not given) | 0.0834 µM | 0.337 µM |
| O=C(C[n+]1ccccc1)NNC(=O)/C(=C/c1ccc2c(c1)OCO2)NC(=O)c1ccccc1 |  | > 100 µM |
| Cc1cccc(NC(=O)/C=C/c2ccc(N(CCC#N)CCC#N)cc2C)c1 |  | > 100 µM |
| Clc1ccc(-c2c(C3=NCCN3)nnn2-c2ccc(Cl)cc2)cc1 |  | 35.9 µM |
| O=C(CCC(=O)Nc1cccc(Cl)c1)CC(=O)c1ccc(Cl)cc1 |  | > 100 µM |

test system: RPMI-8226 leukemia; experiment: NCI-60 cell line screen, 48 h

| Structure (SMILES) | GI50 | TGI |
| --- | --- | --- |
| CC(=O)OCC1OC([S-])C(OC(C)=O)C(OC(C)=O)C1OC(C)=O.CC[PH+](CC)CC.CC[PH+](CC)CC.[Au].[Au] (stereo not given) | 0.138 µM | 0.761 µM |
| O=C(C[n+]1ccccc1)NNC(=O)/C(=C/c1ccc2c(c1)OCO2)NC(=O)c1ccccc1 |  | 63 µM |
| Cc1cccc(NC(=O)/C=C/c2ccc(N(CCC#N)CCC#N)cc2C)c1 |  | > 100 µM |
| Clc1ccc(-c2c(C3=NCCN3)nnn2-c2ccc(Cl)cc2)cc1 |  | 38.8 µM |
| Nc1ccc(C(=O)NN2C(=O)C(Cl)C2c2ccccc2Cl)cc1 (stereo not given) |  | > 100 µM |
| O=C(CCC(=O)Nc1cccc(Cl)c1)CC(=O)c1ccc(Cl)cc1 |  | > 100 µM |

test system: HOP-92 NSCLC; experiment: NCI-60 cell line screen, 48 h

| Structure (SMILES) | GI50 | TGI |
| --- | --- | --- |
| CC(=O)OCC1OC([S-])C(OC(C)=O)C(OC(C)=O)C1OC(C)=O.CC[PH+](CC)CC.CC[PH+](CC)CC.[Au].[Au] (stereo not given) | 0.28 µM | 0.584 µM |
| O=C(C[n+]1ccccc1)NNC(=O)/C(=C/c1ccc2c(c1)OCO2)NC(=O)c1ccccc1 |  | > 100 µM |
| Cc1cccc(NC(=O)/C=C/c2ccc(N(CCC#N)CCC#N)cc2C)c1 |  | > 100 µM |
| Clc1ccc(-c2c(C3=NCCN3)nnn2-c2ccc(Cl)cc2)cc1 |  | 50.2 µM |
| Nc1ccc(C(=O)NN2C(=O)C(Cl)C2c2ccccc2Cl)cc1 (stereo not given) |  | 14.9 µM |
| O=C(CCC(=O)Nc1cccc(Cl)c1)CC(=O)c1ccc(Cl)cc1 |  | > 100 µM |

test system: DMS 273 small cell lung; experiment: NCI-60 cell line screen, 48 h

| Structure (SMILES) | GI50 | TGI |
| --- | --- | --- |
| CC(=O)OCC1OC([S-])C(OC(C)=O)C(OC(C)=O)C1OC(C)=O.CC[PH+](CC)CC.CC[PH+](CC)CC.[Au].[Au] (stereo not given) | 0.453 µM | 2.11 µM |
| O=C(C[n+]1ccccc1)NNC(=O)/C(=C/c1ccc2c(c1)OCO2)NC(=O)c1ccccc1 |  | > 69.8 µM |
| Cc1cccc(NC(=O)/C=C/c2ccc(N(CCC#N)CCC#N)cc2C)c1 |  | > 100 µM |
| Clc1ccc(-c2c(C3=NCCN3)nnn2-c2ccc(Cl)cc2)cc1 |  | > 100 µM |
| Nc1ccc(C(=O)NN2C(=O)C(Cl)C2c2ccccc2Cl)cc1 (stereo not given) |  | 12 µM |
| O=C(CCC(=O)Nc1cccc(Cl)c1)CC(=O)c1ccc(Cl)cc1 |  | > 100 µM |

test system: COLO 205 colon; experiment: NCI-60 cell line screen, 48 h

| Structure (SMILES) | GI50 | TGI |
| --- | --- | --- |
| CC(=O)OCC1OC([S-])C(OC(C)=O)C(OC(C)=O)C1OC(C)=O.CC[PH+](CC)CC.CC[PH+](CC)CC.[Au].[Au] (stereo not given) | 0.198 µM | 0.391 µM |
| O=C(C[n+]1ccccc1)NNC(=O)/C(=C/c1ccc2c(c1)OCO2)NC(=O)c1ccccc1 |  | > 65.5 µM |
| Cc1cccc(NC(=O)/C=C/c2ccc(N(CCC#N)CCC#N)cc2C)c1 |  | > 100 µM |
| Clc1ccc(-c2c(C3=NCCN3)nnn2-c2ccc(Cl)cc2)cc1 |  | 25.4 µM |
| Nc1ccc(C(=O)NN2C(=O)C(Cl)C2c2ccccc2Cl)cc1 (stereo not given) |  | 28.1 µM |
| O=C(CCC(=O)Nc1cccc(Cl)c1)CC(=O)c1ccc(Cl)cc1 |  | > 100 µM |

test system: SK-MEL-5 melanoma; experiment: NCI-60 cell line screen, 48 h

| Structure (SMILES) | GI50 | TGI |
| --- | --- | --- |
| CC(=O)OCC1OC([S-])C(OC(C)=O)C(OC(C)=O)C1OC(C)=O.CC[PH+](CC)CC.CC[PH+](CC)CC.[Au].[Au] (stereo not given) | 0.132 µM | 0.346 µM |
| O=C(C[n+]1ccccc1)NNC(=O)/C(=C/c1ccc2c(c1)OCO2)NC(=O)c1ccccc1 |  | 98.4 µM |
| Cc1cccc(NC(=O)/C=C/c2ccc(N(CCC#N)CCC#N)cc2C)c1 |  | > 100 µM |
| Clc1ccc(-c2c(C3=NCCN3)nnn2-c2ccc(Cl)cc2)cc1 |  | 30.5 µM |
| Nc1ccc(C(=O)NN2C(=O)C(Cl)C2c2ccccc2Cl)cc1 (stereo not given) |  | 29.5 µM |

test system: OVCAR-3 ovarian; experiment: NCI-60 cell line screen, 48 h

| Structure (SMILES) | GI50 | TGI |
| --- | --- | --- |
| CC(=O)OCC1OC([S-])C(OC(C)=O)C(OC(C)=O)C1OC(C)=O.CC[PH+](CC)CC.CC[PH+](CC)CC.[Au].[Au] (stereo not given) | 0.376 µM | 1.19 µM |
| O=C(C[n+]1ccccc1)NNC(=O)/C(=C/c1ccc2c(c1)OCO2)NC(=O)c1ccccc1 |  | > 100 µM |
| Cc1cccc(NC(=O)/C=C/c2ccc(N(CCC#N)CCC#N)cc2C)c1 |  | > 100 µM |
| Clc1ccc(-c2c(C3=NCCN3)nnn2-c2ccc(Cl)cc2)cc1 |  | > 100 µM |
| Nc1ccc(C(=O)NN2C(=O)C(Cl)C2c2ccccc2Cl)cc1 (stereo not given) |  | 26.9 µM |
| O=C(CCC(=O)Nc1cccc(Cl)c1)CC(=O)c1ccc(Cl)cc1 |  | > 100 µM |

test system: SF-268 CNS; experiment: NCI-60 cell line screen, 48 h

| Structure (SMILES) | GI50 | TGI |
| --- | --- | --- |
| CC(=O)OCC1OC([S-])C(OC(C)=O)C(OC(C)=O)C1OC(C)=O.CC[PH+](CC)CC.CC[PH+](CC)CC.[Au].[Au] (stereo not given) | 0.207 µM | 0.669 µM |
| O=C(C[n+]1ccccc1)NNC(=O)/C(=C/c1ccc2c(c1)OCO2)NC(=O)c1ccccc1 |  | > 100 µM |
| Cc1cccc(NC(=O)/C=C/c2ccc(N(CCC#N)CCC#N)cc2C)c1 |  | > 100 µM |
| Clc1ccc(-c2c(C3=NCCN3)nnn2-c2ccc(Cl)cc2)cc1 |  | > 100 µM |
| Nc1ccc(C(=O)NN2C(=O)C(Cl)C2c2ccccc2Cl)cc1 (stereo not given) |  | 15.2 µM |
| O=C(CCC(=O)Nc1cccc(Cl)c1)CC(=O)c1ccc(Cl)cc1 |  | > 100 µM |

test system: SNB-19 CNS; experiment: NCI-60 cell line screen, 48 h

| Structure (SMILES) | GI50 | TGI |
| --- | --- | --- |
| CC(=O)OCC1OC([S-])C(OC(C)=O)C(OC(C)=O)C1OC(C)=O.CC[PH+](CC)CC.CC[PH+](CC)CC.[Au].[Au] (stereo not given) | 0.197 µM | 0.552 µM |
| O=C(C[n+]1ccccc1)NNC(=O)/C(=C/c1ccc2c(c1)OCO2)NC(=O)c1ccccc1 |  | > 100 µM |
| Cc1cccc(NC(=O)/C=C/c2ccc(N(CCC#N)CCC#N)cc2C)c1 |  | > 100 µM |
| Clc1ccc(-c2c(C3=NCCN3)nnn2-c2ccc(Cl)cc2)cc1 |  | > 100 µM |
| Nc1ccc(C(=O)NN2C(=O)C(Cl)C2c2ccccc2Cl)cc1 (stereo not given) |  | 30.6 µM |
| O=C(CCC(=O)Nc1cccc(Cl)c1)CC(=O)c1ccc(Cl)cc1 |  | > 100 µM |

test system: OVCAR-5 ovarian; experiment: NCI-60 cell line screen, 48 h

| Structure (SMILES) | GI50 | TGI |
| --- | --- | --- |
| CC(=O)OCC1OC([S-])C(OC(C)=O)C(OC(C)=O)C1OC(C)=O.CC[PH+](CC)CC.CC[PH+](CC)CC.[Au].[Au] (stereo not given) | 1.59 µM | 2.96 µM |
| O=C(C[n+]1ccccc1)NNC(=O)/C(=C/c1ccc2c(c1)OCO2)NC(=O)c1ccccc1 |  | > 100 µM |
| Cc1cccc(NC(=O)/C=C/c2ccc(N(CCC#N)CCC#N)cc2C)c1 |  | > 100 µM |
| Clc1ccc(-c2c(C3=NCCN3)nnn2-c2ccc(Cl)cc2)cc1 |  | > 100 µM |
| Nc1ccc(C(=O)NN2C(=O)C(Cl)C2c2ccccc2Cl)cc1 (stereo not given) |  | 28.4 µM |
| O=C(CCC(=O)Nc1cccc(Cl)c1)CC(=O)c1ccc(Cl)cc1 |  | > 100 µM |

test system: HCC-2998 colon; experiment: NCI-60 cell line screen, 48 h

| Structure (SMILES) | GI50 | TGI |
| --- | --- | --- |
| CC(=O)OCC1OC([S-])C(OC(C)=O)C(OC(C)=O)C1OC(C)=O.CC[PH+](CC)CC.CC[PH+](CC)CC.[Au].[Au] (stereo not given) | 0.801 µM | 1.95 µM |
| O=C(C[n+]1ccccc1)NNC(=O)/C(=C/c1ccc2c(c1)OCO2)NC(=O)c1ccccc1 |  | > 100 µM |
| Cc1cccc(NC(=O)/C=C/c2ccc(N(CCC#N)CCC#N)cc2C)c1 |  | > 100 µM |
| Clc1ccc(-c2c(C3=NCCN3)nnn2-c2ccc(Cl)cc2)cc1 |  | 33.6 µM |
| Nc1ccc(C(=O)NN2C(=O)C(Cl)C2c2ccccc2Cl)cc1 (stereo not given) |  | 30.1 µM |
| O=C(CCC(=O)Nc1cccc(Cl)c1)CC(=O)c1ccc(Cl)cc1 |  | > 100 µM |

test system: HCT-116 colon; experiment: NCI-60 cell line screen, 48 h

| Structure (SMILES) | GI50 | TGI |
| --- | --- | --- |
| CC(=O)OCC1OC([S-])C(OC(C)=O)C(OC(C)=O)C1OC(C)=O.CC[PH+](CC)CC.CC[PH+](CC)CC.[Au].[Au] (stereo not given) | 0.397 µM | 1.7 µM |
| O=C(C[n+]1ccccc1)NNC(=O)/C(=C/c1ccc2c(c1)OCO2)NC(=O)c1ccccc1 |  | > 100 µM |
| Cc1cccc(NC(=O)/C=C/c2ccc(N(CCC#N)CCC#N)cc2C)c1 |  | > 100 µM |
| Clc1ccc(-c2c(C3=NCCN3)nnn2-c2ccc(Cl)cc2)cc1 |  | 32.3 µM |
| Nc1ccc(C(=O)NN2C(=O)C(Cl)C2c2ccccc2Cl)cc1 (stereo not given) |  | 16.3 µM |
| O=C(CCC(=O)Nc1cccc(Cl)c1)CC(=O)c1ccc(Cl)cc1 |  | > 100 µM |

test system: EKVX NSCLC; experiment: NCI-60 cell line screen, 48 h

| Structure (SMILES) | GI50 | TGI |
| --- | --- | --- |
| CC(=O)OCC1OC([S-])C(OC(C)=O)C(OC(C)=O)C1OC(C)=O.CC[PH+](CC)CC.CC[PH+](CC)CC.[Au].[Au] (stereo not given) | 0.405 µM | 0.921 µM |
| O=C(C[n+]1ccccc1)NNC(=O)/C(=C/c1ccc2c(c1)OCO2)NC(=O)c1ccccc1 |  | > 100 µM |
| Cc1cccc(NC(=O)/C=C/c2ccc(N(CCC#N)CCC#N)cc2C)c1 |  | > 100 µM |
| Clc1ccc(-c2c(C3=NCCN3)nnn2-c2ccc(Cl)cc2)cc1 |  | > 100 µM |
| Nc1ccc(C(=O)NN2C(=O)C(Cl)C2c2ccccc2Cl)cc1 (stereo not given) |  | 31.7 µM |
